Key:
[1] = tested on: A2185 and A2352 cells; experiment: Viability assay (methylene blue), two BRAF melanoma cells; format: cell-based; conditions: 3 μM, 72 hours, 1% FCS
Description: FIGS. 10A, 10B and 10C present data from screening the 20 analogs of Compound Z2 (“C-compounds”) showing three particularly active anti-proliferative compounds. […] A2185 and A2352 cells were grown in 1% FCS containing DMSO (0.1%), EPE peptide, Compound Z56, Compound Z2 or C-compounds (10 μM), for 72 hours. Compounds were categorized according to activity: (1) active, below 40%; (2) moderate activity, below 80%; (3) not active, above 80%. […] A2185 and A2352 cells were grown in 1% FCS containing DMSO (0.1%), EPE peptide (10 μM), compounds Z56, Z2 or selected C-compounds (3 μM), for 72 hours. Empty squares/circles represent individual data points of proliferation. Full squares/circles indicate average proliferation of 2 independent experiments in triplicate±SE. Bold horizontal line defines arbitrary activity threshold of activity below 40%. FIG. 10C presents dose response curves of active C-compounds compounds. A2185 and A2352 were grown in 1% FCS media containing DMSO (0.1%), EPE peptide, Z56, Z2 (10 μM) or compounds C17, C22 and C23 (0.1-10 μM), for 72 hours. […] Cell viability was measured by staining with methylene blue. Data presented as percentage of DMSO control. Bar graphs represent average of 2 independent experiments done in triplicates ±SE.
FIG. 13 presents a graph showing the effect of analogs of Compound C17 (“D-compounds”) on cell viability at a concentration of 10 μM. A2185 and A2352 cells were grown in 1% FCS media containing DMSO (0.1%) EPE peptide (10 μM), Compounds Z56, Z2, C17 (10 μM) as controls, and D-Compounds (10 μM), for 72 hours. Viable cells were measured by staining with methylene blue. Bar graphs represent average of 2 independent experiments done in triplicates. Data presented as percentage of DMSO proliferation ±standard error.
FIG. 14 presents a graph showing the effect of analogs of Compound C17 (“D-compounds”) on cell viability at a concentration of 1 μM. A2185 and A2352 cells were grown in 1% FCS media containing DMSO (0.1%), EPE peptide (10 μM), Compounds Z56, Z2 and C17 (1 and 10 μM) as controls, and D-compounds (1 μM), for 72 hours. Viable cells were measured by staining with methylene blue. Bar graphs represent average of 2 independent experiments done in triplicates. Data presented as percentage of DMSO proliferation ±standard error.
Cells were seeded at low confluence into 24, 48 or 96-well plates in complete medium. After 24 hours, medium was replaced by 1% FCS (fetal calf serum) containing appropriate treatments. Fresh medium containing the same agents was replaced every day. After 72 or 96 hours of treatment, cells were fixed with 4% formaldehyde overnight at 23° C., washed once with 0.1 M borate buffer (pH 8.5) for 10 minutes, and stained with of 1% methylene blue in 0.1 M borate buffer (pH 8.5) for 30 minutes. Excess stain was washed out with distilled water. Color was extracted by adding 0.1 M HCl (3 hours, 23° C.), and absorbance measured at 595 nm in an ELISA reader. For time course experiments, attached cells were fixed and measured at 0, 24, 48, 72 and 96 hours. For dose-response experiments, cells were treated with indicated concentrations of reagent, fixed and stained after 72 hours as above.
The ability of the selected compounds to reduce cell viability of two BRAF melanoma cells (A2185 and A2352) was evaluated. Initially, all compounds were assayed at a relatively high concentration of 10 μM.

[2] = tested on: A2185, A2352, HeLa and MCF7 cells; experiment: Viability assay (methylene blue), four cancer lines; format: cell-based; conditions: 72 hours, 1% FCS, in 3 or 4 cell lines, read-out: reduction of cell viability
Description: Four cancer cells, A2185, A2352, HeLa and MCF7 were grown in 1% FCS containing 10 μM of either EPE peptide, or Compounds Z56, Z1, Z2 or Z3, for 72 hours. Bars indicate average of 2 independent experiments done in triplicate ±SE. FIG. 8B presents dose response curves for Compounds Z56, Z1 and Z2. A2185 cells were grown in 1% FCS containing DMSO (0.1%) EPE or Scramble (Scr) peptide (10 μM), Compounds Z56, Z1, Z2, Z3 ([…]) or no treatment (FCS 1%) for 72 hours. Empty squares represent individual data points of proliferation. Full squares indicate average proliferation of 2 independent experiments done in triplicate ±SE. Bold horizontal line indicates arbitrary threshold (40%) for what is considered an active compound. Cell viability (as shown in FIGS. 8A and 8B) was measured by staining with methylene blue, and data presents proliferation normalized to DMSO control. […] Cell lysates were analyzed by Western blot with the corresponding antibodies. […]
Cells were seeded at low confluence into 24, 48 or 96-well plates in complete medium. […] Color was extracted by adding 0.1 M HCl (3 hours, 23° C.), and absorbance measured at 595 nm in an ELISA reader. For time course experiments, attached cells were fixed and measured at 0, 24, 48, 72 and 96 hours. […]

O=C(OC1C=CS(=O)(=O)C1)c1ccccc1 (centres unmarked) [Compound Z2]
cell viability at lower concentration [1]: variable activity
cytotoxicity at 10 µM [2]: ~60%
